Structures can show the parent of a compound that is named as a salt. One block for each compound: values may come before it.
Key:
[1] = test system: sorbitol levels in diabetic rats; test: control of sorbitol formation in diabetic rats, oral route (summary statement); assay type: in vivo, rat; settings: 0.75 mg./kg. to 20 mg./kg.
Source text: As previously indicated, the spiro-hydantoin compounds of this invention are all readily adapted to therapeutic use as aldose reductase inhibitors for the control of chronic diabetic complications, in view of their ability to reduce lens sorbitol levels in diabetic subjects to a staistically significant degree. […] The other compounds of this invention also cause similar results. Furthermore, all the herein described compounds of this invention can be administered by either the oral or parenteral routes of administration, for the present purposes at hand, without causing any significant untoward pharmacological side reactions to occur in the subject to whom they are so administered. In general, these compounds are ordinarily administered in dosages ranging from about 0.1 mg. to about 10 mg. per kg. of body weight per day, although variations will necessarily occur depending upon the weight and condition of the subject being treated and the particular route of administration chosen.

[2] = test system: sorbitol accumulation in the sciatic nerve of streptozotocinized (i.e., diabetic) rats; test: inhibition of sorbitol accumulation in the sciatic nerve of acutely streptozotocinized (diabetic) rats; assay type: in vivo, rat; settings: measured at 27 h, vs untreated
Method: (§1) The activity of the compounds of the present invention, as agents for the control of chronic diabetic complications, is determined by their ability to successfully pass one or more of the following standard biological and/or pharmacological tests, viz., (1) measuring their ability to inhibit the enzyme activity of isolated aldose reductase; (2) measuring their ability to reduce or inhibit sorbitol accumulation in the sciatic nerve of acutely sterptozotocinized (i.e., diabetic) rats; (3) measuring their ability to reverse already-elevated sorbitol levels in the sciatic nerve and lens of chronic streptozotocin-induced diabetic rats; (4) measuring their ability to prevent or inhibit galactitol formation in the lens of acutely galactosemic rats, and (5) measuring their ability to delay cataract formation and reduce the severity of lens opacities in chronic galactosemic rats.
The following spiro-hydantoin compounds of Preparation C and Examples I-V, VII-IX, XI-XVII, XIX-XXV, XXVII and XXX-XXXIII, respectively, were tested for their ability to reduce or inhibit sorbitol accumulation in the sciatic nerve of streptozotocinized (i.e., diabetic) rats by the procedure essentially described in U.S. Pat. No. 3,821,383. In the present study, the amount of sorbitol accumulation in the sciatic nerves was measured 27 hours after induction of diabetes. The compounds were administered orally at the dose levels indicated at 4, 8 nd 24 hours following the administration of streptozotocin. The results obtained in this manner are presented below in terms of percent inhibition (%) afforded by the test compound as compared to the case where no compound was administered (i.e., the untreated animal where sorbitol levels normally rise from approximately […]. tissue to as high as […]. tissue in the 27-hour test period): […]

[3] = test system: lenticular opacities in galactosemic rats; test: severity of lenticular opacities in galactosemic rats (percentage of lens area involved); assay type: in vivo, rat; settings: for lenses with area of involvement never less than 10%: 17 days, control 75%
Method: as §1
(§2) To determine the effect of 6-fluoro-spiro-[chroman-4,4'-imidazolidine]-2',5'-dione on cataract formation in galactosemis, rats were fed a 30% galactose diet with and without this compound for a period of 29 days and eye examinations also were routinely conducted approximately twice a week throughout this period. The experimental animals received the test compound mixed in the food at concentration levels necessary to afford approximate doses of 10 mg./kg. and 20 mg./kg., respectively. Control animals received the galactose diet alone (i.e., without the compound). […] The corresponding value obtained in rats receiving the test compound at 20 mg./kg. was 0%.
The effectiveness of 6-fluoro-spiro-[chroman-4,4'-imidazolidine]-2',5'-dione in delaying cataract development in rats is further highlighted by the test producedure of Example XLIV by giving careul consideration to the severity of the lenticular opacities involved. In this study, the percentage of lens areas involved were monitored throughout the 29-day period and the results obtained served as an index of severity. […]

[4] = test system: sorbitol levels in the sciatic nerve and lens of diabetic subjects; test: lowering of sorbitol levels in sciatic nerve (peripheral nerves) and lens of diabetic subjects (summary statement); assay type: in vivo; settings: qualitative statement
[5] = test system: cataract formation in galactosemic rats; test: delay of cataract formation in galactosemic rats (incidence of lenticular opacities); assay type: in vivo, rat; settings: 30% galactose diet
Method: as §1, §2

[6] = test system: sorbitol levels in the sciatic nerve and the lens of streptozotocin-induced diabetic rats; test: reversal of already-elevated sorbitol levels in sciatic nerve and lens of chronic streptozotocin-induced diabetic rats; assay type: in vivo, rat; settings: 2.5 mg./kg. orally twice a day, seven days; two weeks after streptozotocin 65 mg./kg. i.v.; three hours post dose
Method: as §1
6-Fluoro-spiro-[chroman-4,4'-imidazolidine]-2',5'-dione (the product of Example XXII) was tested for its ability to reverse already-elevated sorbital levels in streptozotocininduced diabetic rats of two weeks duration (i.e., chronic) by administering said compound orally to the animals for a period of seven days. In this study, the sorbital determinations were carried out in both the sciatic nerve and the lens. Streptozotocin was first administered to the animals at 65 mg./kg., via the intravenous route. […]

aldose reductase = biological target: T1, aldose reductase (Bos taurus, UniProt P16116); test: inhibition of aldose reductase enzyme activity (procedure of S. Hayman et al., modified by K. Sestanj et al.); assay type: biochemical, calf
T1 construct: partially purified aldose reductose enzyme obtained from calf lens; from tissue; host or cells: calf lens
Method: as §1
Hayman et al., as described in the Journal of Biological Chemistry, Vol. 240, p. […] In every case, the substrate employed ws partially purified aldose reductose enzyme obtained from calf lens.

[7] = test system: galactitol levels in the lens of galactosemic subjects; test: lowering of galactitol levels in the lens of galactosemic subjects (summary statement); assay type: in vivo; settings: qualitative statement
[8] = test system: galactitol formation in acutely galactosemic rats (lens); test: inhibition of galactitol formation in the lens of acutely galactosemic rats; assay type: in vivo, rat; settings: 30% galactose diet, seven days
Method: as §1
The ability of 6-fluoro-spiro-[chroman-4,4'-imidazolidine]-2',5'-dione to prevent or inhibit galactitol formation in acutely galactosemic rats was determined by administering said compound to the animals, via their feed, for a period of seven days. In this study, normal male rats were first divided into groups of six animals each and then fed a 30% galactose diet together with the compound to be administered at three different dosage levels. […]

[9] = assay type: physicochemical
Method: The sodium salt of 6-fluoro-spiro-[chroman-4,4'-imidazolidine]-2',5'-dione is prepared by dissolving said compound in water containing an equivalent amount in moles of sodium hydroxide and then freeze-drying the mixture.

inhibition at 100 µM (aldose reductase; 10^-4 M, calf lens enzyme, read-out: Percent inhibition of aldose reductase enzyme activity): 84%
inhibition at 10 µM (aldose reductase; 10^-5 M, calf lens enzyme, read-out: Percent inhibition of aldose reductase enzyme activity): 58%
inhibition at 1 µM (aldose reductase; 10^-6 M, calf lens enzyme, read-out: Percent inhibition of aldose reductase enzyme activity): 52%
inhibition at 0.1 µM (aldose reductase; 10^-7 M, calf lens enzyme, read-out: Percent inhibition of aldose reductase enzyme activity): 3%
aldose reductase inhibitory activity (in words) (aldose reductase; qualitative statement): highly potent
SMILES: O=C1NC(=O)C2(CCOc3ccc(F)cc32)N1 (stereo not shown) [Ex. XXII, 6-fluoro-spiro[chroman-4,4'-imidazolidine]-2',5'-dione]
control (inhibition) of the formation of sorbitol levels (in words) [1]: to a significantly high degree
Percent inhibition of sorbitol accumulation in the sciatic nerve ([2]; 0.75 mg./kg. orally at 4, 8 and 24 h after streptozotocin): 45%
Percent inhibition of sorbitol accumulation in the sciatic nerve ([2]; 1.5 mg./kg. orally at 4, 8 and 24 h after streptozotocin): 72%
lenses with area of involvement never less than 10% ([3]; 10 mg./kg.): 6%
lenses with area of involvement never less than 10% ([3]; 20 mg./kg.): 0%
severity of lenticular opacities versus control group ([3]; treated groups, including 29-day mark): always less than that found in the control group
lowering of sorbitol levels in sciatic nerve (peripheral nerves) and lens (in words) [4]: extremely effective
delay in cataract formation ([5]; 20 mg./kg., 29-day mark): an impressive delay in cataract formation was still observed at the 29-day mark
eyes with lenticular opacities ([5]; 22-day mark, 10 mg./kg. in food): greater than 90%
eyes with lenticular opacities ([5]; 29-day mark, 20 mg./kg. in food): 37%
eyes with lenticular opacities ([5]; 17 days, 10 mg./kg. in food, control 100%): 6%
eyes with lenticular opacities ([5]; 17 days, 20 mg./kg. in food, control 100%): 0%
lenticular opacities in the eyes ([5]; after 8-14 days, either 10 mg./kg. or 20 mg./kg. in food, control 90% of eyes): no opacities being present
delay in cataract formation ([5]; all treated groups (10 and 20 mg./kg.)): delay in cataract formation continued in all the treated groups until the 22-day mark
reduction in sorbitol levels in the lens [6]: 71%
reduction in sorbitol levels in the sciatic nerve [6]: 68%
lowering of galactitol levels in the lens (in words) [7]: extremely effective
inhibition of galactitol values in the lens ([8]; 10 mg./kg. in feed): 40%
inhibition of galactitol values in the lens ([8]; 20 mg./kg. in feed): 72%

solubility in water [9]: freely soluble in water
SMILES: O=C1NC(=O)C2(CCOc3ccc(F)cc32)N1 (stereo not shown) [sodium salt of 6-fluoro-spiro-[chroman-4,4'-imidazolidine]-2',5'-dione]
